In PubChem BioAssay AID540316 (Broad Institute, 2011):
Results filed as inconclusive are left out. The source made the active and inactive calls.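 Rule for the calls: active = compounds lowering viability whose fitted half-maximal concentration is at most tenfold the top tested dose; inconclusive = flat curve with viability loss of 30 to 70%, or bad fit; inactive = the rest.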

System: not listed separately
Assay: viability loss in BJeH fibroblasts, dose response, counter-screen for Ras selective lethality project, cell-based, plate reader, dry powder, set 4 (AID 540316)
Details: BJeH fibroblasts viability, Alamar Blue fluorescence, 48 h; at 48 µM (top of the series)

Row | Compound | activity change, negative = fewer viable cells
1 | Cc1onc(C(=O)N2CCCN(C(c3ccccc3)c3ccccc3)CC2)c1[N+](=O)[O-] | -10.7% (inactive)
2 | Cc1onc(CC(=O)N2CCN(C(c3ccc(F)cc3)c3ccc(F)cc3)CC2)c1[N+](=O)[O-] | -13.5% (inactive)
3 | Cc1onc(C(=O)N2CCN(Cc3ccccc3)CC2)c1[N+](=O)[O-] | -0.245% (inactive)
4 | Cc1onc(C(=O)NCCNC(c2ccccc2)c2ccccc2)c1[N+](=O)[O-] | -11.9% (inactive)
5 | Cc1onc(C(=O)N2CCN(C(c3ccccc3)c3ccccc3)CC2)c1[N+](=O)[O-] | -11.7% (inactive)

System: BJeH fibroblasts viability, Alamar Blue fluorescence, 48 h
Assay: as above
Details: not given

Row | Compound | AC50
6 | COc1ccc(C(c2ccc(OC)cc2)N2CCN(C(=O)c3ccc([N+](=O)[O-])o3)CC2)cc1 | 6.76 µM
7 | COC(=O)c1ccc([C@@H]2c3[nH]c4ccccc4c3C[C@@H](C(=O)OC)N2C(=O)CCl)cc1 | 2.68 µM
8 | O=C(c1ccc([N+](=O)[O-])o1)N1CCN(C(c2ccc(F)cc2)c2ccc(F)cc2)CC1 | 14.2 µM
9 | CCOc1ccccc1-n1c(C(C)N2CCN(C(=O)COc3ccc(Cl)cc3)CC2)nc2ccccc2c1=O (stereo not given) | 7.93 µM
10 | O=C(NCCNC(c1ccccc1)c1ccccc1)c1ccc([N+](=O)[O-])o1 | 5.31 µM
